{
  "source": "patent US8044098B2",
  "about": "“Use of hydroxybenzoic acids and their esters and analogues for preventing or treating virus infection” (Shenghua Guangzhou Pharmaceutical Science & Technology Co., …, priority 2005, dated 2011)",
  "key": {"HPV 6/11": {"system": "HPV 6/11", "assay": "Drug screening by quantitative fluorescent PCR analysis of HPV 6/11 in condyloma acuminata homogenate", "set-up": "species or system human papillomavirus (HPV)"}, "HPV 16/18": {"system": "HPV 16/18", "assay": "Drug screening by quantitative fluorescent PCR analysis of HPV 16/18 in condyloma acuminata homogenate", "set-up": "species or system human papillomavirus (HPV)"}, "HSV infection": {"system": "HSV infection", "assay": "External treatment of HSV infection in clinical tests", "format": "in vivo, human", "settings": "patients with HSV infection", "excerpt": "Twenty-two patients who were clinically diagnosed with HSV infection were randomly selected and divided into two groups. Acyclovir ointment and micro emulsion containing propyl gallate prepared as described in Example 1 were applied to the two groups, respectively, on the affected areas of the patients three times a day."}, "[1]": {"format": "physicochemical", "method": "20 ml 1,2-propylene glycol, 15 ml Tween-80 and 5 ml azone were mixed together and sterile distilled water was added to bring the volume to 100 ml. The pH value of the solution was adjusted to pH 6.8 with NaOH or HCl to obtain a micro emulsion. 10 g propyl gallate and 10 g gallic acid were dissolved in the micro emulsion, respectively, and mixed well. 10 ml of each micro emulsion was added to a capped transparent glass tube. Both solutions were colorless. The absorbance of the two solutions at 400˜500 nm was measured with spectrophotometry and their absorbance was under 0.15. […] Measured by spectrophotometry again, the absorbance of the gallic acid solution was 1.2 and that of the propyl gallate solution was 0.4."}, "[2]": {"settings": "24 hours after adding the test compound"}},
  "data": [
    {"smiles": "CCCOC(=O)c1cc(O)c(O)c(O)c1", "note": "[Propyl gallate]", "values": [
      {"measurement": "HPV 6/11 Virus (copies/ml)", "setting": "HPV 6/11; 50 μl 10% micro emulsion + 50 μl HPV sample homogenate, 37° C., 24 hours, saline control 1.45 × 10^6", "value": 0, "unit": "copies/ml"},
      {"measurement": "HPV 6/11 detected by FQ-PCR (in words)", "setting": "HPV 6/11; [2]", "value": "no HPV 6/11 or HPV 16/18 was detected"},
      {"measurement": "HPV 16/18 Virus (copies/ml)", "setting": "HPV 16/18; 50 μl 10% micro emulsion + 50 μl HPV sample homogenate, 37° C., 24 hours, saline control 1.40 × 10^5", "value": 0, "unit": "copies/ml"},
      {"measurement": "HPV 16/18 detected by FQ-PCR (in words)", "setting": "HPV 16/18; [2]", "value": "no HPV 6/11 or HPV 16/18 was detected"},
      {"measurement": "effectiveness in treating HSV infection compared with acyclovir ointment", "setting": "HSV infection", "value": "more effective"},
      {"measurement": "average time for recovery", "setting": "HSV infection; applied on affected areas three times a day", "value": 3, "unit": "days"},
      {"measurement": "colour of solution, initial", "setting": "[1]; micro emulsion pH 6.8, freshly prepared", "value": "colorless"},
      {"measurement": "absorbance after 30 days", "setting": "[1]; micro emulsion pH 6.8, kept at room temperature for 30 days, 400˜500 nm", "value": 0.4},
      {"measurement": "colour of solution after 30 days", "setting": "[1]; micro emulsion pH 6.8, room temperature for 30 days", "value": "remained colorless"}
    ]}
  ]
}
